Assays:
[1] = molecular target: Fab311; assay: ITC affinity measurement of peptides to Fab311; format: binding, human; conditions: for affinity/Kd compared with the (NPNA)3 peptide: Fab311, ITC, change vs (NPNA)3; for Kd / No. of sites: ITC, 25 °C, Dulbecco's PBS, Fab311 10.3 μM in cell, peptide 89–122 μM in syringe, single-site model, average and SD of triplicate experiments
Description: (§1) ITC affinity measurements were performed using a MicroCal Auto-iTC200 instrument (GE Healthcare). […]
(§2) General. All peptides were ordered from Innopep Inc. with a 10-μg/mL solution of the Fab of interest in blocking buffer. The purity of >98% and contained chlorine counter ions. The pep- membrane was then washed three times for 5 min each in TBST tides have N-terminal acetylation and C-terminal amidation to buffer, after which it was incubated for 2 h with an anti-human eliminate charges at the peptide termini. Fab genes were codon Fab secondary antibody conjugated to HRP (Sigma-Aldrich) at a optimized, synthesized, and cloned into pHCMV3 vectors by 1:20,000 dilution in blocking buffer. […]
(§3) Antibodies 311 and 317 were selected forITC. A MicroCal Auto-iTC200 (GE Healthcare) was used to structural studies because of their functional activity, high avidity perform ITC measurements. Before the experiments, all proteins index, and similar heavy-chain germline genes. were extensively dialyzed against Dulbecco’s PBS (Thermo Evaluation of the Protective Activity of mAbs. mAbs (100 μg for Fischer). The peptides were placed in the syringe at a concentration Ab311 and 300 μg for Ab317 and Ab2A10) against the NANP of 122μM for Ac-NPNANPNA-NH2, 116 μM for Ac-repeats of P. falciparum CSP were administered to 7- to 8-wk-old NPNANPNANPNA-NH2,89μM for Ac-[…]- […]
(§4) C57BL/6 mice (five mice per group) by i.v. injection [in 200 μLof NH2, and 110 μM for Ac-DPNANPNVDPNA-NH2, whereas the […]
(§5) PBS (pH 7.4)]. The mice were challenged 5–10 min later by i.v. concentrations of Fab fragments in the cell were 10.3 and 9.7 μM injection with 2,000 P. berghei chimeric sporozoites expressing for Fab311 and Fab317, respectively. The Fab and peptide P. falciparum CSP (3D7 strain) generated as previously described concentrations were determined by UV absorbance at 280 nm (22). Forty hours later, livers were harvested, and RNA was and 205 nm. Molar extinction coefficients for the peptides were isolated to quantify the malaria-specific 18s rRNA levels by real- estimated using a previously published method (35). Experi-time PCR (34). Inhibition of parasite development was calcu- ments were carried out in triplicate at 25 °C, except for lated by comparing the parasite liver burdens of experimental Fab317 binding to Ac-[…]-NH2, which was […]
(§6) and naive control mice. The statistical analyses were done with done in duplicate, and consisted of 16 injections of 2.45 μL each, the Mann–Whitney U test. Data were plotted using GraphPad with injection duration of 4.9 s, inject io n interval of 180 s, and Prism 6.0 software. No samples were excluded from statistical reference power of 5 μCa l. Fi tt in g of the integrate d titrati on analyses. peaks was performed with Origin 7.0 software using a single-site binding model. The first data point and any outliers were Expression and Purification of Recombinant CSP. The rsCSP con- excluded from the fit. […]
(§7) Two 1-L NaCl, 2.7 mM KCl, pH 8.0) with a 5:1 molar ratio of (NPNA)3 cultures were inoculated the next day with 25 mL overnight peptide to Fab. Crystals were grown using sitting-drop vapor culture and were grown at 37 °C. When the optical density at diffusion with a well solution containing 0.1 M MES (pH 6.0), 600 nm reached a value of 1, the cultures were induced with 36% PEG400, 5% PEG3000 for the Fab311–peptide complex, 1 mM isopropyl β-D-1-thiogalactopyranoside for 6 h. The cells and 0.1 M sodium citrate (pH 4.0), 1 M lithium chloride, 20% then were harvested and lysed by microfluidization. The lysate PEG6000 for the Fab317–peptide complex. Crystals were grown was incubated overnight with Ni cOmplete resin (Roche) and at 298 K and typically appeared within 3 d. Fab311–peptide was eluted using a buffer containing 200 mM imidazole. Typi- crystals were cryo-cooled without additional cryoprotection, cally, 10 mg of protein was obtained per 2 L of culture. Samples while Fab317–peptide crystals were cryoprotected by soaking in […]

[2] = tested on: Fab317; assay: ITC affinity measurement of peptides to Fab317; format: binding, human; conditions: for Kd / No. of sites: ITC, 25 °C, Dulbecco's PBS, Fab317 9.7 μM in cell, single-site model
Description: as §1, §2, §3, §4, §5, §6, §7

[3] = peptide 89 μM in syringe, duplicate experiments
[4] = peptide 110–122 μM in syringe, average and SD of triplicate experiments

Ac-NPNVDPNANPNV-NH2 [NPNVDPNANPNV, Ac-NPNVDPNANPNV-NH2]
affinity/Kd compared with the (NPNA)3 peptide [1]: approximately fivefold lower affinity
Kd [1]: 1790 ± 189 nM
No. of sites [1]: 1.24 ± 0.02
relative affinity (in words) ([2]; Fab317, ITC, NVDP-containing peptides, comparator not clearly stated): substantially lower
Kd [2, 3]: 12100 ± 2490 nM
No. of sites [2, 3]: 1.72 ± 0.13

CC(=O)N[C@@H](CC(N)=O)C(=O)N1CCC[C@H]1C(=O)N[C@@H](CC(N)=O)C(=O)N[C@@H](C)C(=O)N[C@@H](CC(N)=O)C(=O)N1CCC[C@H]1C(=O)N[C@@H](CC(N)=O)C(=O)N[C@@H](C)C(N)=O [(NPNA)2, Ac-NPNANPNA-NH2]
affinity/Kd compared with the (NPNA)3 peptide [1]: almost identical to that of the (NPNA)3 peptide
Kd [1]: 296 ± 19 nM
No. of sites [1]: 1.50 ± 0.08
Kd increase compared with (NPNA)3 ([2]; Fab317, ITC, vs (NPNA)3): 2.2 fold
Kd [2, 4]: 173 ± 8 nM
No. of sites [2, 4]: 1.41 ± 0.05

Ac-DPNANPNVDPNA-NH2 [DPNANPNVDPNA, Ac-DPNANPNVDPNA-NH2]
affinity/Kd compared with the (NPNA)3 peptide [1]: approximately fivefold lower affinity
Kd [1]: 1370 ± 390 nM
No. of sites [1]: 1.20 ± 0.03
Kd [2, 4]: 448 ± 68 nM
No. of sites [2, 4]: 1.64 ± 0.05

CC(=O)N[C@@H](CC(N)=O)C(=O)N1CCC[C@H]1C(=O)N[C@@H](CC(N)=O)C(=O)N[C@@H](C)C(=O)N[C@@H](CC(N)=O)C(=O)N1CCC[C@H]1C(=O)N[C@@H](CC(N)=O)C(=O)N[C@@H](C)C(=O)N[C@@H](CC(N)=O)C(=O)N1CCC[C@H]1C(=O)N[C@@H](CC(N)=O)C(=O)N[C@@H](C)C(N)=O [(NPNA)3, Ac-NPNANPNANPNA-NH2]
Kd [1]: 305 ± 60 nM
No. of sites [1]: 0.74 ± 0.02
Kd [2, 4]: 78 ± 16 nM
No. of sites [2, 4]: 1.27 ± 0.02
